Test results: ChEMBL document CHEMBL4007488, “Amphiphilic Indole Derivatives as Antimycobacterial Agents: Structure-Activity Relationships and Membrane Targeting Properties” (J Med Chem, 2017)
Values after ≈ are worked out from the molar mass of the structure shown.

How the values were obtained:
[1] = test system: Mycobacterium tuberculosis variant bovis; assay: Antimycobacterial activity against Mycobacterium bovis BCG ATCC 35734 after 5 days by broth dilution method; type: functional; conditions: ATCC 35734, 120 h
[2] = test system: Mycobacterium tuberculosis variant bovis; assay: Antimycobacterial activity against Mycobacterium bovis BCG ATCC 35734 assessed as growth inhibition at 10 uM after 5 days relative to control; type: functional; conditions: ATCC 35734, 120 h, read-out: GI

| SMILES | MIC50 [1] [µM] | MIC90 [1] [µM] | inhibition of growth at 10 µM [2] [%] |
| --- | --- | --- | --- |
| CC(C)=CCC/C(C)=C/Cn1cc(CN2CCCC2)c2cc(F)ccc21 | 13 (≈ 4.61 µg/mL) | 25 (≈ 8.86 µg/mL) | 99 |
| Fc1ccc2c(c1)c(CN1CCCCC1)cn2CCC1CCCCC1 | 17 (≈ 5.82 µg/mL) | 27 (≈ 9.25 µg/mL) | 99 |
| CCCCCCCCn1cc(CN2CCCCCC2)c2ccc(F)cc21 | 4 (≈ 1.43 µg/mL) | 6 (≈ 2.15 µg/mL) | 99 |
| CC(C)=CCC/C(C)=C/Cn1ccc2cc(F)ccc21 | > 50 | > 50 | 99 |
| CCCCn1cc(CN2CCCCCC2)c2c(F)cccc21 | 10 (≈ 3.02 µg/mL) | 23 (≈ 6.96 µg/mL) | 99 |
| CCCCCCCCn1cc(CNC23CC4CC(CC(C4)C2)C3)c2cccc(F)c21 | 3 (≈ 1.23 µg/mL) | 5 (≈ 2.05 µg/mL) | 99 |
| CCCCCCCCCCCCn1cc(CN2CCCCCC2)c2c(F)cccc21 | 7 (≈ 2.9 µg/mL) | 10 (≈ 4.15 µg/mL) | 99 |
| CC(C)=CCC/C(C)=C/Cn1cc(CN(C)C)c2cc(F)ccc21 | 14.5 (≈ 4.76 µg/mL) | 25 (≈ 8.21 µg/mL) | 99 |
| CCCCCCCCn1cc(CN2CCC3(CC2)OCCO3)c2c(OC)cccc21 | 6 (≈ 2.49 µg/mL) | 9 (≈ 3.73 µg/mL) | 99 |
| CCCCCCCCn1cc(CN2CCC3(CC2)OCCO3)c2cc(OC)ccc21 | 5 (≈ 2.07 µg/mL) | 9 (≈ 3.73 µg/mL) | 99 |
| CCCCCCCCn1cc(CN2CCC3(CC2)OCCO3)c2cccc(OC)c21 | 28 (≈ 11.6 µg/mL) | 42 (≈ 17.4 µg/mL) | 99 |
| CCCCCCCCn1cc(CN2CCC3(CC2)OCCO3)c2cc(F)ccc21 | 3 (≈ 1.21 µg/mL) | 5 (≈ 2.01 µg/mL) | 99 |
| CCN(CC)Cc1cn(C/C=C(\C)CCC=C(C)C)c2ccc(F)cc12 | 13 (≈ 4.63 µg/mL) | 24 (≈ 8.56 µg/mL) | 99 |
| CCCCCCCCn1cc(CN(CCC)CCC)c2cc(F)ccc21 | 11 (≈ 3.97 µg/mL) | 35 (≈ 12.6 µg/mL) | 99 |
| CCn1cc(CN2CCCCCC2)c2c(F)cccc21 | > 50 | > 50 | 99 |
| CCCCCCCCn1cc(CN2CCC(C)CC2)c2cc(F)ccc21 | 4 (≈ 1.43 µg/mL) | 6 (≈ 2.15 µg/mL) | 99 |
| CCCCCCCCn1cc(CNC23CC4CC(CC(C4)C2)C3)c2cc(OC)ccc21 | 3 (≈ 1.27 µg/mL) | 5 (≈ 2.11 µg/mL) | 99 |
| CCCCCCCCn1cc(CNC23CC4CC(CC(C4)C2)C3)c2c(F)cccc21 | 2 (≈ 0.821 µg/mL) | 3 (≈ 1.23 µg/mL) | 99 |

| SMILES | MIC50 [1] [µM] | MIC90 [1] [µM] | inhibition of growth at 10 µM [2] [%] |
| --- | --- | --- | --- |
| CCCCCCCCn1cc(CN2CCCCC2)c2cc(F)ccc21 | 6 (≈ 2.07 µg/mL) | 11 (≈ 3.79 µg/mL) | 99 |
| CC(C)=CCC/C(C)=C/Cn1cc(CN2CCCCC2)c2cccnc21 | > 50 | > 50 | 99 |
| CCCCCCn1cc(CN2CCCCCC2)c2c(F)cccc21 | 8 (≈ 2.64 µg/mL) | 13 (≈ 4.3 µg/mL) | 99 |
| CCCCCCCCn1cc(CNC2CCCC2)c2cc(F)ccc21 | 6 (≈ 2.07 µg/mL) | 21 (≈ 7.23 µg/mL) | 99 |
| O=C(Cn1cc(CN2CCCCC2)c2cc(F)ccc21)NC1CC1 | > 50 | > 50 | 99 |
| CCCN(CCC)Cc1cn(C/C=C(\C)CCC=C(C)C)c2ccc(F)cc12 | 18 (≈ 6.92 µg/mL) | 39 (≈ 15 µg/mL) | 99 |
| CCCCCCCCn1cc(CN2CCOCC2)c2cc(F)ccc21 | 16 (≈ 5.54 µg/mL) | > 50 | 99 |
| CCCCCCCCn1ccc2c(F)cccc21 | > 50 | > 50 | 99 |
| CC(C)=CCC/C(C)=C/Cn1cc(CNC23CC4CC(CC(C4)C2)C3)c2cc(F)ccc21 | 17.5 (≈ 7.61 µg/mL) | 25.5 (≈ 11.1 µg/mL) | 99 |
| Fc1ccc2c(c1)c(CN1CCCCC1)cn2CCCc1ccccc1 | 10 (≈ 3.5 µg/mL) | 20 (≈ 7.01 µg/mL) | 99 |
| Fc1cccc2[nH]cc(CN3CCCCCC3)c12 | > 50 | > 50 | 99 |
| CCCCCCCCn1cc(CN2CCCCC2)c2cc(OC)ccc21 | 5 (≈ 1.78 µg/mL) | 7.5 to 8 (≈ 2.67 to 2.85 µg/mL) | 99 |
| CC(C)=CCC/C(C)=C/Cn1cc(CN2CCC(C)CC2)c2cc(F)ccc21 | 4 (≈ 1.53 µg/mL) | 6 (≈ 2.3 µg/mL) | 99 |
| CCCCCCCCn1cc(CNC23CC4CC(CC(C4)C2)C3)c2ccc(OC)cc21 | 3 (≈ 1.27 µg/mL) | 6 (≈ 2.54 µg/mL) | 99 |
| CCCCCCCCn1cc(CNC2CC2)c2cc(F)ccc21 | 11 (≈ 3.48 µg/mL) | 27 (≈ 8.54 µg/mL) | 99 |
| CCCCCCCCn1cc(CN2CCCCC2)c2cc(Cl)ccc21 | 5 (≈ 1.8 µg/mL) | 9 (≈ 3.25 µg/mL) | 99 |
| CCCCCCCCn1cc(CN2CCCC2)c2cc(F)ccc21 | 10 (≈ 3.3 µg/mL) | 24 (≈ 7.93 µg/mL) | 99 |
